Results: patent US20250098679A1, “HERBICIDAL PYRIDONE DERIVATIVES” (SYNGENTA CROP PROTECTION AG, priority 2021, published 2025)

Tests used:
Type in all cases: in vivo
Conditions in all cases: evaluated after 13 days
[1] = system: Setaria faberi (SETFA); test: Post-emergence Test, Setaria faberi (SETFA); set-up: key to percentage damage caused to the plant, SETFA (five-point scale): 5=81-100%, 4=61-80%, 3=41-60%, 2=21-40%, 1=0-20% damage
In short: (§1)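 Scores are percentage plant damage on a 1–5 scale (1=0-20%, 2=21-40%, 3=41-60%, 4=61-80%, 5=81-100%), read 13 days after treatment. Pots received a spray at 1000 g/ha unless otherwise stated, formulated in acetone/water (50:50) containing 0.5% Tween 20.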

[2] = system: Amaranthus palmeri (AMAPA); test: Pre-emergence Test, Amaranthus palmeri (AMAPA)
[3] = system: Echinochloa crus-galli (ECHCG); test: Post-emergence Test, Echinochloa crus-galli (ECHCG); set-up: key to percentage damage caused to the plant, ECHCG (five-point scale): 5=81-100%, 4=61-80%, 3=41-60%, 2=21-40%, 1=0-20% damage
In short: as §1

[4] = system: Amaranthus retoflexus (AMARE); test: Pre-emergence Test, Amaranthus retoflexus (AMARE)
[5] = system: Amaranthus palmeri (AMAPA); test: Post-emergence Test, Amaranthus palmeri (AMAPA); set-up: key: 5=81-100%, 4=61-80%, 3=41-60%, 2=21-40%, 1=0-20% damage
In short: as §1

[6] = system: Ipomoea hederacea (IPOHE); test: Pre-emergence Test, Ipomoea hederacea (IPOHE)
[7] = system: Zea mays (ZEAMX); test: Pre-emergence Test, Zea mays (ZEAMX)
[8] = system: Ipomoea hederacea (IPOHE); test: Post-emergence Test, Ipomoea hederacea (IPOHE); set-up: key to percentage damage caused to the plant, IPOHE (five-point scale): 5=81-100%, 4=61-80%, 3=41-60%, 2=21-40%, 1=0-20% damage
In short: as §1

[9] = system: Echinochloa crus-galli (ECHCG); test: Pre-emergence Test, Echinochloa crus-galli (ECHCG)
[10] = system: Zea mays (ZEAMX); test: Post-emergence Test, Zea mays (ZEAMX); set-up: key to percentage damage caused to the plant, ZEAMX (five-point scale): 5=81-100%, 4=61-80%, 3=41-60%, 2=21-40%, 1=0-20% damage
In short: as §1

[11] = system: Setaria faberi (SETFA); test: Pre-emergence Test, Setaria faberi (SETFA)
[12] = system: Amaranthus retoflexus (AMARE); test: Post-emergence Test, Amaranthus retoflexus (AMARE); set-up: key to percentage damage caused to the plant, AMARE (five-point scale): 5=81-100%, 4=61-80%, 3=41-60%, 2=21-40%, 1=0-20% damage
In short: as §1

## CCn1c(Cn2ccc(C(F)(F)F)n2)c(-c2ccc(Cl)cc2)c(=O)c(C(=O)O)c1-c1ccc(Cl)c(Cl)c1 [Compound 21, 5-(4-chlorophenyl)-2-(3,4-dichlorophenyl)-1-ethyl-4-oxo-6-[[3-(trifluoromethyl)pyrazol-1-yl]methyl]pyridine-3-carboxylic acid]
[1]; 1000 g/ha
  percentage damage caused to the plant, SETFA (five-point scale): 0
[2]; 250 g/Ha (*)
  Pre-emergence Test AMAPA, percentage damage caused to the plant (five-point scale): 0
[3]; 1000 g/ha
  percentage damage caused to the plant, ECHCG (five-point scale): 0
[4]; 250 g/Ha (*)
  Pre-emergence Test AMARE, percentage damage caused to the plant (five-point scale): 0
[5]; 1000 g/ha
  percentage damage caused to the plant, AMAPA (five-point scale): 2 (2=21-40%)
[6]; 250 g/Ha (*)
  Pre-emergence Test IPOHE, percentage damage caused to the plant (five-point scale): 1 (1=0-20%)
[7]; 250 g/Ha (*)
  Pre-emergence Test ZEAMX, percentage damage caused to the plant (five-point scale): 0
[8]; 1000 g/ha
  percentage damage caused to the plant, IPOHE (five-point scale): 3 (3=41-60%)
[9]; 250 g/Ha (*)
  Pre-emergence Test ECHCG, percentage damage caused to the plant (five-point scale): 0
[10]; 1000 g/ha
  percentage damage caused to the plant, ZEAMX (five-point scale): 1 (1=0-20%)
[11]; 250 g/Ha (*)
  Pre-emergence Test SETFA, percentage damage caused to the plant (five-point scale): 0
[12]; 1000 g/ha
  percentage damage caused to the plant, AMARE (five-point scale): 1 (1=0-20%)

## CCn1c(Cn2nc(C)cc2Cl)cc(=O)c(C(=O)O)c1-c1ccc(Cl)c(Cl)c1 [Compound 17, 6-[(5-chloro-3-methyl-pyrazol-1-yl)methyl]-2-(3,4-dichlorophenyl)-1-ethyl-4-oxo-pyridine-3-carboxylic acid]
[1]; 250 g/Ha
  percentage damage caused to the plant, SETFA (five-point scale): 3 (3=41-60%)
[1]; 1000 g/ha
  percentage damage caused to the plant, SETFA (five-point scale): 4 (4=61-80%)
[2]; 1000 g/ha
  Pre-emergence Test AMAPA, percentage damage caused to the plant (five-point scale): 5 (5=81-100%)
[3]; 250 g/Ha
  percentage damage caused to the plant, ECHCG (five-point scale): 4 (4=61-80%)
[3]; 1000 g/ha
  percentage damage caused to the plant, ECHCG (five-point scale): 4 (4=61-80%)
[4]; 1000 g/ha
  Pre-emergence Test AMARE, percentage damage caused to the plant (five-point scale): 2 (2=21-40%)
[5]; 250 g/Ha
  percentage damage caused to the plant, AMAPA (five-point scale): 5 (5=81-100%)
[5]; 1000 g/ha
  percentage damage caused to the plant, AMAPA (five-point scale): 5 (5=81-100%)
[6]; 1000 g/ha
  Pre-emergence Test IPOHE, percentage damage caused to the plant (five-point scale): 3 (3=41-60%)
[7]; 1000 g/ha
  Pre-emergence Test ZEAMX, percentage damage caused to the plant (five-point scale): 2 (2=21-40%)
[8]; 250 g/Ha
  percentage damage caused to the plant, IPOHE (five-point scale): 3 (3=41-60%)
[8]; 1000 g/ha
  percentage damage caused to the plant, IPOHE (five-point scale): 5 (5=81-100%)
[9]; 1000 g/ha
  Pre-emergence Test ECHCG, percentage damage caused to the plant (five-point scale): 4 (4=61-80%)
[10]; 250 g/Ha
  percentage damage caused to the plant, ZEAMX (five-point scale): 2 (2=21-40%)
[10]; 1000 g/ha
  percentage damage caused to the plant, ZEAMX (five-point scale): 3 (3=41-60%)
[11]; 1000 g/ha
  Pre-emergence Test SETFA, percentage damage caused to the plant (five-point scale): 4 (4=61-80%)
[12]; 250 g/Ha
  percentage damage caused to the plant, AMARE (five-point scale): 5 (5=81-100%)
[12]; 1000 g/ha
  percentage damage caused to the plant, AMARE (five-point scale): 3 (3=41-60%)
